Measured values: US20240317689A1, “POTASSIUM CHANNEL MODULATOR, COMPOSITION AND APPLICATION” (NEUSHEN THERAPEUTICS (SHANGHAI) CO., LTD, priority 2021, published 2024)

Legend:
[1] = molecular target: T1, KCNQ2/3 potassium ion channel (Homo sapiens, UniProt O43525+O43526); assay: KCNQ2/3 potassium ion channel activation assay (whole-cell patch clamp, hKCNQ-CHO cells); format: cell-based; conditions: read-out: Enhancment % (current enhancement multiple); for activation at 0.05 µM: test concentration 0.05 μM; for activation at 3 µM: test concentration 3 μM
T1 construct: expressed in transfected cells; host or cells: CHO cells (hKCNQ-CHO)
Method: Example 64: KCNQ2/3 Potassium Ion Channel Activation Assay
(§1) hKCNQ-CHO cells were cultured at 37° C. in a humidified environment of 5% CO2.
• 2.1. Extracellular fluid (mM): NaCl 145, KCl 4, CaCl2 2, MgCl2 1, Glucose 10, HEPES 10. The pH value of the extracellular fluid was adjusted to 7.4 with NaOH, and the osmotic pressure was adjusted to about 295 mOsm. • 2.2. Intracellular fluid (mM (mmol/L)): KOH 31.25, KCl 120, EGTA 10, MgCl2 1.75, CaCl2 5.374, HEPES 10, Na-ATP 4. The pH value of the intracellular fluid was adjusted to 7.4 with HCl, and the osmotic pressure was adjusted to about 285 mOsm. • 2.3. The extracellular fluid should be prepared once a week, and the intracellular fluid should be stored at −20° C. after preparation.
(§2) The model positive reference compound Retigabine (RTG) was dissolved with 100% DMSO and configured as a 10 mM working solution. The test compounds were dissolved with 100% DMSO and configured as a 10 mM working solution. The final concentration of DMSO in the test solution should be less than 0.3%.
(§3) Whole-cell patch clamp was performed at room temperature. The electrical signals recorded with the EPC 10 USB amplifier (HEKA Elektronik, Germany) were filtered by a 3 kHz low-pass filter, and finally recorded in PatchMaster 2×90.5 software (HEKA Elektronik, Germany). At this step, the quality control standard was that the cell high-resistance sealing was greater than 500 MOhms, and the detection current was greater than 0.4 nA.
(§4) The recording electrodes were pulled out and polished with a vertical puller (NARISHIGE PC-10, Japan) using a borosilicate glass capillary (GC150tF-10, Harvard Apparatus Co., UK). At this step, the quality control standard was that the electrode resistance was between 2 MΩ and 5 MΩ.
(§5) During the recording process of the whole-cell patch clamp, a continuous perfusion system (BT100-2J, LongerPump, China) was used to continuously perfuse the extracellular fluid. The perfusion system was installed on the stage of an upright microscope (FN-S2N, Nikon, Japan), and the perfusion head was manually positioned under the microscope.
The voltage command for detecting the amplitude of hKCNQ current was as follows: the cell stepped from the clamping potential of −80 mV to −30 mV, and held for 1500 ms; and then the clamping voltage was lowered to −120 my and held for 500 ms; finally, the voltage returned to the clamping potential of −80 mV. The detection voltage command was repeated every 15,000 milliseconds, and the command was continuously executed during the compound test. The quality control standard for compound action stability was the current amplitude under 5 consecutive voltage commands, and the coefficient of variation of the current amplitude was <5%.
Data analysis was performed using PatchMaster 2×90.5 software (HEKA Elektronik, Germany) and Excel 2013 (Microsoft, USA) software. For each cell's patch clamp recording, the amplitude of the hKCNQ channel current (Itest) corresponding to the test compound concentration should be obtained. The enhanced channel current was obtained by subtracting the cell's original channel current (Icontrol) from Itest and dividing by Icontrol to obtain the current enhancement multiple. That is, the current enhancement multiple (Enhancment %)=(Itest −Icontrol)/Icontrol[…].

KCNQ2/3 = molecular target: T2, KCNQ2/3 (Homo sapiens, UniProt O43525+O43526); assay: Half-maximal activation voltage left shift assay (whole-cell patch clamp, hKCNQ-CHO cells); format: cell-based
T2 construct: expressed in transfected cells; host or cells: CHO cells (hKCNQ-CHO)
Method: Example 65: Half-Maximal Activation Voltage Left Shift Assay
as §1
• a) Extracellular fluid (mM): NaCl 145, KCl 4, CaCl2 2, MgCl2 1, Glucose 10, HEPES 10. The pH value of the extracellular fluid was adjusted to 7.4 with NaOH, and the osmotic pressure was adjusted to about 295 mOsm. • b) Intracellular fluid (mM): KOH 31.25, KCl 120, EGTA 10, MgCl2 1.75, CaCl2 5.374, HEPES 10, Na-ATP 4. The pH value of the intracellular fluid was adjusted to 7.4 with HCl, and the osmotic pressure was adjusted to about 285 mOsm. • c) The extracellular fluid should be prepared once a week, and the intracellular fluid should be aliquoted and stored at −20° C. after preparation.
as §2, §3, §4, §5
The voltage command for detecting the amplitude of hKCNQ current was as follows: the cell was clamped from a potential of −80 mV, stepped to −120 mV, and then clamped continuously at increasing voltages of 10 mV per sweep until +60 mV, held for 1500 ms; and then the clamping voltage was lowered to −120 my and held for 500 ms; finally, the voltage returned to the clamping potential of −80 mV. The detection voltage command was repeated every 15,000 milliseconds, and the command was continuously executed during the compound test. The half-maximal voltage of the cell's hKCNQ was obtained by nonlinear fitting of the current amplitude at different clamping potentials (−120 mV to +60 mV).
Data analysis was performed using PatchMaster 2×90.5 software (HEKA Elektronik, Germany) and Excel 2013 (Microsoft, USA) software. For each cell's patch clamp recording, the half-maximal voltage (V½-test) of hKCNQ corresponding to the test compound concentration should be obtained. The left-shifted half-maximal voltage value ΔV½ (V1/2 Shift (mV)) was obtained by subtracting the half-maximal voltage of hKCNQ before compound action (V½-control) from V½-test.

[2] = test system: MES-induced epilepsy in mice; assay: MES mouse epilepsy model; format: in vivo; conditions: 5 mpk, electrical stimulation 30 minutes after administration
Method: Example 67: MES Mouse Epilepsy Model
• 1. The mice (10 mice per group) were transferred to the operating room to adapt to the environment 30 minutes before the experiment. • 2. The mice were administered the test compounds or positive drug (Valproate) at a specific time point. 30 minutes after the administration of Valproate or 30 minutes after the administration of the test compounds, electrical stimulation was given with ear electrodes. The stimulation parameters were a square wave with a total duration of 0.8 seconds, a frequency of 50 Hz, and an amplitude of 50 mA with an interval of 10 msec. • 3. The number and duration of hind limb tonic extension of the animal within 1 minute after the completion of the electrical stimulation was recorded, and the possible death and time of death were also recorded. • 4. After administration, the possible side effects induced by the drug were observed and recorded, and the side effects are divided into four levels: • None: Normal • Mild sedation • Moderate sedation • Severe sedation

[3] = Blood-brain barrier permeability assay in mice (brain concentration after intragastric administration); format: in vivo; conditions: 5 mg/kg, brain tissue homogenate
Method: Administration Dosage of 5 mg/kg
The drug was prepared in proportion (solvent: 5% DMSO+5% Solutol+90% normal saline) to make a solution with a concentration of 0.5 mg/mL, and the mice were subjected to intragastric administration at 0.1 mL/10 g, with 3 mice per group in parallel.
After the mice were administered, the mice were anesthetized and perfused with normal saline through the heart, dissected to collect the brain tissue. The brain tissue was washed with normal saline, dried, weighed, and transferred to a 2 mL EP tube, added with normal saline according to brain tissue: normal saline=1:1 (g/mL). 3 steel balls were put in each tube on a tissue grinder, and the tissue mixture was homogenized at 60 HZ for 60 s, centrifuged at 15000 rpm at 4° C. for 10 minutes, and the supernatant was taken, which was the brain tissue homogenate.
The drug stock solution (0.5 mg/mL) was taken and diluted with acetonitrile to form standard curve working solutions with concentrations of 50, 100, 200, 500, 1000, 2000, 5000, 10000, and 20000 ng/mL, and quality control working solutions with concentrations of 100, 2000, and 10000 ng/mL. 47.5 μL of blank matrix was taken respectively, and 2.5 μL of standard curve working solution and 2.5 μL of quality control working solution were added thereto to prepare standard curve samples with concentrations of 2.5, 5, 10, 25, 50, 100, 250, 500, and 1000 ng/mL and quality control samples with concentrations of 5, 100, and 500 ng/mL. 200 μL of acetonitrile (containing the internal standard of 5 ng/mL of Loratadine) was added thereto respectively, subjected to vortex oscillation for 3 minutes, centrifuged at 15,000 rpm and 4° C. for 10 minutes, and the supernatant was taken and analyzed by LC-MS/MS to obtain a standard curve.
50 μL of brain tissue homogenate sample was taken, added with 200 μL of acetonitrile (containing the internal standard of 5 ng/mL of Loratadine), subjected to vortex oscillation for 3 minutes, centrifuged at 15,000 rpm and 4° C. for 10 minutes, and the supernatant was taken for LC-MS/MS analysis. The standard curve was combined with the analysis to obtain the corresponding concentrations in the brain.

Cc1cc(N2CCCc3cc(O[C@H](C)C(F)(F)F)ccc3C2)cc(C)c1NC(=O)CC(C)(C)C [Compound 032, (R)—N-(2,6-dimethyl-4-(7-((1,1,1-trifluoropropan-2-yl)oxy)-1,3,4,5-tetrahydro-2H-benzo[c]azepin-2-yl)phenyl)-3,3-dimethylbutanamide]
activation at 0.05 µM [1]: 50 to 100% | activation at 3 µM [1]: > 100% | V1/2 Shift (mV) (KCNQ2/3; test concentration 50 nM): −17.59 mV | Protection rate for tonic extension [2]: 100%

Cc1cc(N2CCCc3cc(OC(C)C)c(F)cc3C2)cc(C)c1NC(=O)CC(C)(C)C [Compound 035, N-(4-(8-fluoro-7-isopropoxy-1,3,4,5-tetrahydro-2H-benzo[c]azepin-2-yl)-2,6-dimethylphenyl)-3,3-dimethylbutanamide]
activation at 0.05 µM [1]: 50 to 100% | activation at 3 µM [1]: > 100% | V1/2 Shift (mV) (KCNQ2/3; test concentration 50 nM): −16.46 mV | Concentrations in the brain [3]: 257 ng/g | Protection rate for tonic extension [2]: 100%

Cc1cc(N2CCCc3cc(OC4CCCC4)ccc3C2)cc(C)c1NC(=O)CC(C)(C)C [Compound 011, N-(4-(7-(cyclopentyloxy)-1,3,4,5-tetrahydro-2H-benzo[c]azepin-2-yl)-2,6-dimethylphenyl)-3,3-dimethylbutanamide]
activation at 0.05 µM [1]: > 100% | activation at 3 µM [1]: > 100% | V1/2 Shift (mV) (KCNQ2/3; test concentration 50 nM): −2.92 mV | V1/2 Shift (mV) (KCNQ2/3; test concentration 300 nM): −21.98 mV | Protection rate for tonic extension [2]: 90%

Cc1cc(N2CCCc3cc(OC(C)C(F)(F)F)ccc3C2)cc(C)c1NC(=O)CC(C)(C)C (centres unmarked) [Compound 008, N-(2,6-dimethyl-4-(7-((1,1,1-trifluoropropan-2-yl)oxy)-1,3,4,5-tetrahydro-2H-benzo[c]azepin-2-yl)phenyl)-3,3-dimethylbutanamide]
activation at 0.05 µM [1]: 50 to 100% | activation at 3 µM [1]: > 100% | V1/2 Shift (mV) (KCNQ2/3; test concentration 50 nM): −23.38 mV | V1/2 Shift (mV) (KCNQ2/3; test concentration 300 nM): −47.60 mV | Concentrations in the brain [3]: 166.1 ng/g | Protection rate for tonic extension [2]: 90%

Cc1cc(N2CCCc3cc(OC(C)C)ccc3C2)cc(C)c1NC(=O)CC(C)(C)C [Compound 003, N-(4-(7-isopropoxy-1,3,4,5-tetrahydro-2H-benzo[c]azepin-2-yl)-2,6-dimethylphenyl)-3,3-dimethylbutanamide]
activation at 0.05 µM [1]: < 50% | activation at 3 µM [1]: 50 to 100% | V1/2 Shift (mV) (KCNQ2/3; test concentration 50 nM): −7.00 mV | V1/2 Shift (mV) (KCNQ2/3; test concentration 300 nM): −36.06 mV | Concentrations in the brain [3]: 127.5 ng/g | Protection rate for tonic extension [2]: 100%

Cc1cc(N2CCc3cc(F)ccc3C2)cc(C)c1NC(=O)CC(C)(C)C [Xen-1101, reference compound]
V1/2 Shift (mV) (KCNQ2/3; test concentration 50 nM): −5.48 mV | V1/2 Shift (mV) (KCNQ2/3; test concentration 300 nM): −13.33 mV | Concentrations in the brain [3]: 90.9 ng/g

Cc1cc(N2CCCc3cc(O[C@@H](C)C(F)(F)F)ccc3C2)cc(C)c1NC(=O)CC(C)(C)C [Compound 033, (S)—N-(2,6-dimethyl-4-(7-((1,1,1-trifluoropropan-2-yl)oxy)-1,3,4,5-tetrahydro-2H-benzo[c]azepin-2-yl)phenyl)-3,3-dimethylbutanamide]
activation at 3 µM [1]: 50 to 100% | V1/2 Shift (mV) (KCNQ2/3; test concentration 50 nM): −44.25 mV | Protection rate for tonic extension [2]: 100%

CCC(C)Oc1ccc2c(c1)CCCN(c1cc(C)c(NC(=O)CC(C)(C)C)c(C)c1)C2 (centres unmarked) [Compound 004, N-(4-(7-(sec-butoxy)-1,3,4,5-tetrahydro-2H-benzo[c]azepin-2-yl)-2,6-dimethylphenyl)-3,3-dimethylbutanamide]
activation at 0.05 µM [1]: < 50% | activation at 3 µM [1]: > 100% | V1/2 Shift (mV) (KCNQ2/3; test concentration 50 nM): −11.76 mV | V1/2 Shift (mV) (KCNQ2/3; test concentration 300 nM): −23.56 mV

Cc1cc(N2CCCc3cc(F)c(F)cc3C2)cc(C)c1NC(=O)CC(C)(C)C [Compound 047, N-(4-(7,8-difluoro-1,3,4,5-tetrahydro-2H-benzo[c]azepin-2-yl)-2,6-dimethylphenyl)-3,3-dimethylbutanamide]
activation at 3 µM [1]: > 100%

Cc1cc(N2CCCc3cc(OC(C)C(F)(F)F)c(F)cc3C2)cc(C)c1NC(=O)CC(C)(C)C (centres unmarked) [Compound 034, N-(4-(8-fluoro-7-((1,1,1-trifluoropropan-2-yl)oxy)-1,3,4,5-tetrahydro-2H-benzo[c]azepin-2-yl)-2,6-dimethylphenyl)-3,3-dimethylbutanamide]
activation at 3 µM [1]: > 100%
